Results from ChEMBL document CHEMBL1201862, “PubChem BioAssay data set” (2004).
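Method: 48-hour compound exposure of cells in 96-well plates, five concentrations, linear interpolation of endpoints. Here, GI50 denotes the concentration required for 50% inhibition of growth.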 Active and inactive are the calls of the source. Cut-off read from the data, not from the text of the source: active = GI50 up to about 1.1 µM and inactive = higher.

Experiments:
Assay in all cases: DTP human tumour cell line panel, 48 h
[1] = tested on: MOLT-4
[2] = tested on: SF-268
[3] = tested on: SF-539
[4] = tested on: NCI-H460
[5] = tested on: OVCAR-3
[6] = tested on: LOX IMVI
[7] = tested on: NCI-H522
[8] = tested on: HCC 2998
[9] = tested on: HOP-62
[10] = tested on: SK-OV-3
[11] = tested on: RPMI-8226
[12] = tested on: EKVX
[13] = tested on: U-251
[14] = tested on: HL-60
[15] = tested on: K562
[16] = tested on: HOP-92
[17] = tested on: MCF7
[18] = tested on: MDA-MB-435
[19] = tested on: PC-3
[20] = tested on: T47D

Measured: GI50

Cc1cc(Br)ccc1/N=N/C1C(=O)ON=C1c1ccccc1 (centres undefined)
inactive: [1] 31.3 µM | [2] > 100 µM | [3] > 100 µM | [4] 55 µM | [5] > 100 µM | [6] 63.4 µM | [7] 40.6 µM | [8] 26.5 µM | [9] > 100 µM | [10] > 100 µM | [11] 28.4 µM | [12] 67 µM | [13] > 100 µM | [14] 32.1 µM | [15] 45 µM | [16] > 100 µM

NNc1nnc(CCCCCCCCc2nnc(NN)n2N)n1N
inactive: [17] > 100 µM | [18] > 100 µM | [1] 33.2 µM | [2] 43.3 µM | [3] > 100 µM | [4] > 100 µM | [19] > 100 µM | [6] 21.4 µM | [7] 38.7 µM | [8] 33.3 µM | [9] 37.2 µM | [10] > 100 µM | [12] > 100 µM | [13] 16.9 µM | [14] 24.4 µM | [15] 14 µM | [16] 28 µM

CCOC(=O)C1CCC(=O)N1C(=O)c1ccc(Cl)cc1 (centres undefined)
inactive: [17] > 100 µM | [18] > 100 µM | [1] > 100 µM | [2] > 100 µM | [3] > 100 µM | [4] > 100 µM | [5] > 100 µM | [6] > 100 µM | [7] > 100 µM | [8] > 100 µM | [9] > 100 µM | [20] > 100 µM | [11] > 100 µM | [12] > 100 µM | [13] > 100 µM | [14] > 100 µM | [15] > 100 µM | [16] > 100 µM

CS(=O)(=O)C1(Br)S(=O)(=O)OCCOS1(=O)=O
inactive: [1] > 100 µM | [2] > 100 µM | [3] > 100 µM | [4] > 100 µM | [5] > 100 µM | [6] > 100 µM | [7] > 100 µM | [8] > 100 µM | [9] > 100 µM | [10] > 100 µM | [11] > 100 µM | [12] > 100 µM | [13] > 100 µM | [14] > 100 µM | [15] > 100 µM | [16] > 100 µM

c1ccc(COc2ccc3[nH]c4c5c6ccccc6nc-5c[nH]c4c3c2)cc1
inactive: [1] 7.62 µM | [2] 17 µM | [3] 15.7 µM | [4] 18.6 µM | [5] 15.9 µM | [6] 18.7 µM | [7] 16.7 µM | [8] 10.5 µM | [9] 15.8 µM | [10] 18.4 µM | [11] 2.97 µM | [12] 17.7 µM | [13] 11.7 µM | [14] 2.19 µM | [15] 2.48 µM | [16] 15.8 µM

CC(C)=CC1C(C(=O)Oc2ccccc2C(C)C)C1(C)C (centres undefined)
inactive: [17] 19.8 µM | [18] 30.8 µM | [2] 35.5 µM | [4] 22.4 µM | [5] 17.8 µM | [6] 17.7 µM | [7] 16.6 µM | [8] 17.8 µM | [9] 27.9 µM | [10] 31.6 µM | [20] 19.8 µM | [11] 19.3 µM | [12] 17.3 µM | [13] 16.7 µM | [14] 19.1 µM | [15] 25.8 µM | [16] 25.5 µM

CC(=O)c1ccc(N2CCN(C3=CC(=O)c4c(O)ccc(O)c4C3=O)CC2)cc1
inactive: [17] 35.9 µM | [1] 5.38 µM | [2] 33 µM | [3] > 100 µM | [4] 48.5 µM | [19] 66.1 µM | [5] 39.9 µM | [8] > 100 µM | [9] 29.9 µM | [20] > 100 µM | [11] > 100 µM | [12] > 100 µM | [13] 16.2 µM | [14] 10.4 µM | [15] 37.5 µM | [16] 25.8 µM

COc1cc(-c2nn3c(=O)n(-c4ccc(Cl)cc4)c(=O)nc3s2)cc(OC)c1OC
inactive: [1] 98.2 µM | [2] > 50 µM | [3] 17 µM | [4] > 100 µM | [5] 54.5 µM | [6] 18.5 µM | [7] > 58.2 µM | [8] > 100 µM | [9] 18.4 µM | [10] > 50 µM | [11] > 50 µM | [12] > 86.5 µM | [13] 18 µM | [14] > 50 µM | [15] > 31.6 µM | [16] 15.5 µM

CC1=NN(c2ccccc2)C(=O)C1C(=O)C(=O)Nc1ccc(C)cc1C (centres undefined)
inactive: [17] > 100 µM | [1] > 100 µM | [2] > 100 µM | [3] > 100 µM | [4] > 100 µM | [19] > 100 µM | [5] > 100 µM | [6] > 100 µM | [7] > 100 µM | [8] > 100 µM | [9] > 100 µM | [10] > 100 µM | [20] > 100 µM | [11] > 100 µM | [12] > 100 µM | [13] > 100 µM | [14] > 100 µM | [15] > 100 µM | [16] > 94.2 µM

COc1c(C)c(C/C=C(\C)CCCC(C)CCCC(C)CCCC(C)C)c(OC)c2ccccc12 (centres undefined)
inactive: [17] > 100 µM | [18] > 100 µM | [1] > 100 µM | [2] > 100 µM | [3] > 100 µM | [4] > 100 µM | [19] > 100 µM | [5] > 100 µM | [6] > 100 µM | [7] > 100 µM | [8] > 100 µM | [10] > 100 µM | [11] > 100 µM | [12] > 100 µM | [13] > 100 µM | [15] > 100 µM | [16] > 100 µM

COc1cc(-c2cc(=O)c3ccccc3o2)ccc1N
inactive: [1] 25.5 µM | [2] 26.8 µM | [3] 30.8 µM | [4] 37.2 µM | [5] 62.8 µM | [6] 51.1 µM | [7] 20.5 µM | [8] > 100 µM | [9] 41 µM | [10] > 100 µM | [11] 45.5 µM | [12] 12.8 µM | [13] > 100 µM | [14] 16.6 µM | [15] 60.8 µM | [16] 33.8 µM

c1ccc(/C(=N/Nc2cnccn2)c2ncccn2)cc1
inactive: [17] > 100 µM | [18] > 100 µM | [1] 28.6 µM | [2] 22.5 µM | [3] > 100 µM | [4] > 100 µM | [19] > 100 µM | [5] 30.8 µM | [7] 14.9 µM | [8] > 100 µM | [9] 53.5 µM | [10] 57.7 µM | [11] > 100 µM | [12] 18.2 µM | [13] > 100 µM | [15] > 100 µM | [16] 35.7 µM

COC(=O)C(/C(=N/NC(N)=O)C(=O)Nc1c(C)cccc1C(C)(C)C)c1nc2ccc(Cl)cc2nc1O (centres undefined)
inactive: [1] > 100 µM | [2] > 100 µM | [3] > 100 µM | [4] > 100 µM | [5] > 100 µM | [6] > 100 µM | [7] > 100 µM | [8] > 100 µM | [9] > 100 µM | [10] > 100 µM | [11] > 100 µM | [12] 75.5 µM | [13] > 100 µM | [14] > 100 µM | [15] > 100 µM | [16] > 100 µM

CCCCc1c2c(nc3c1CCC/C3=C\c1ccccc1)C(=O)CCC2
inactive: [1] 13.8 µM | [2] 21.3 µM | [3] 18.4 µM | [4] 34.2 µM | [5] 15.1 µM | [6] 17.6 µM | [7] 13.2 µM | [8] 20.3 µM | [9] 20.9 µM | [10] 24.8 µM | [11] 13.7 µM | [12] 19.1 µM | [13] 15.2 µM | [14] 22.2 µM | [15] 18.2 µM | [16] 22 µM

C(=C\C(Sc1ccccc1)c1ccccc1)/NNC1=NN=C(c2ccccc2)C(c2ccccc2)N1 (centres undefined)
inactive: [1] 8.2 µM | [2] > 100 µM | [3] 65.3 µM | [4] 30.3 µM | [5] 33.4 µM | [6] 51.9 µM | [7] 33.7 µM | [8] 27.7 µM | [9] 16.5 µM | [10] > 100 µM | [11] 16.4 µM | [12] 32.9 µM | [13] 30 µM | [14] 15.2 µM | [15] 13.1 µM | [16] 16.3 µM

COC(=O)c1c(O)ccc2c1c1c(n2Cc2ccc(OC)cc2)C(=O)c2ccccc2C1
inactive: [17] 22.4 µM | [18] 45.7 µM | [1] 40.8 µM | [2] 30.3 µM | [3] 42.2 µM | [4] 29.3 µM | [19] 18.5 µM | [5] 63.2 µM | [6] 57.7 µM | [9] > 100 µM | [10] 31 µM | [11] 8.22 µM | [13] 47.3 µM | [14] > 100 µM | [15] 76.7 µM
